Here are results for 28 molecules from patent US8729082B2, “Substituted imidazoquinoxalines” (Bayer Intellectual Property GmbH, priority 2009, dated 2014).

This assay deals with T1, human kinase Mps-1 (Homo sapiens, UniProt P33981).
T1 construct: N-terminally GST-tagged human full length recombinant Mps-1 kinase; purchased Invitrogen, Karslruhe, Germany PV4071
T1 sequence (P33981 1-857): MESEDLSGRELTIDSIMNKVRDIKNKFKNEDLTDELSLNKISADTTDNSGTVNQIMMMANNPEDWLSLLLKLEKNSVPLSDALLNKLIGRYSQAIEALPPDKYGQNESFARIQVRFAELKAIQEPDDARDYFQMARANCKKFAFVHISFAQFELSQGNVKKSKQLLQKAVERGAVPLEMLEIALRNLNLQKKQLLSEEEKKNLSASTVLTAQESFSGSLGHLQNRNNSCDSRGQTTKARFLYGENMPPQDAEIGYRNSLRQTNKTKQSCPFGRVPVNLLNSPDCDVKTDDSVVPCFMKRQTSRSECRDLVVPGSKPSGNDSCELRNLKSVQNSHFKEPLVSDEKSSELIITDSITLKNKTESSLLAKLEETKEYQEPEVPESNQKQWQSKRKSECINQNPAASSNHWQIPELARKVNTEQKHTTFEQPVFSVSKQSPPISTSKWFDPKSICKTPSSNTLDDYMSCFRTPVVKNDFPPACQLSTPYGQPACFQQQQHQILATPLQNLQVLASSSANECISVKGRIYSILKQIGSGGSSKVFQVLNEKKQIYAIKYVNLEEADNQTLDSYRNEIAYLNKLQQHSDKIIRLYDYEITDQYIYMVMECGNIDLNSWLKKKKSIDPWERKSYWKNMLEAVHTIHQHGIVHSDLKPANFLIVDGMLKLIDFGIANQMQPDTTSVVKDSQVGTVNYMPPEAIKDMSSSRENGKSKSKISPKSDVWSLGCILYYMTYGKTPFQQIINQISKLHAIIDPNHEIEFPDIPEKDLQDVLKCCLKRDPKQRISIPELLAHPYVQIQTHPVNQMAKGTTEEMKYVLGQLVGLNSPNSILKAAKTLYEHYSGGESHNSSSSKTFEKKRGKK
As to the kind of experiment: Mps-1 kinase assay (HTRF). It is filed as biochemical. The conditions noted are these: lowATP; mean; read-out: Mps1 lowATP mean IC50. In outline: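 HTRF readout: EDTA-stopped reactions incubated 1 h with europium anti-phospho(Ser/Thr) antibody and streptavidin-XLent, emission ratio 665/620 nm after 350 nm excitation. Kinase step: compound pre-bound 15 min to ~1 nM GST-Mps-1, then 60 min at 22 °C with ATP and biotin-peptide substrate; inhibition scaled between no-inhibitor (0%) and no-enzyme (100%) controls.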
On the technique in general: In TR-FRET formats the signal depends on donor and acceptor labels being close together.
Take `CNC(=O)Nc1ccc(-c2cnc3c(NCc4cccc(F)c4)nc4cc(C)c(C)cc4n23)cc1` [Example 2-161, 1-(4-{4-[(3-fluorobenzyl)amino]-7,8-dimethylimidazo[1,2-a]quinoxalin-1-yl}phenyl)-3-methylurea]: the IC50 (usually the concentration needed to halve the response being measured) was found to be 1310 nM.

On to `CNC(=O)Nc1ccc(-c2cnc3c(NCCOC)nc4cc(C)c(C)cc4n23)cc1` [Example 2-162, 1-(4-{4-[(2-methoxyethyl)amino]-7,8-dimethylimidazo[1,2-a]quinoxalin-1-yl}phenyl)-3-methylurea], for which the IC50 stood at 417 nM.

Take `CNC(=O)Nc1ccc(-c2cnc3c(NCc4ccccc4F)nc4cc(C)c(C)cc4n23)cc1` [Example 2-163, 1-(4-{4-[(2-fluorobenzyl)amino]-7,8-dimethylimidazo[1,2-a]quinoxalin-1-yl}phenyl)-3-methylurea]: the concentration for half-maximal inhibition (IC50) is 1470 nM.

As for `CNC(=O)Nc1ccc(-c2cnc3c(NCc4ccc(F)cc4)nc4cc(C)c(C)cc4n23)cc1` [Example 2-164, 1-(4-{4-[(4-fluorobenzyl)amino]-7,8-dimethylimidazo[1,2-a]quinoxalin-1-yl}phenyl)-3-methylurea], the IC50 was 414 nM.

In the case of `CNC(=O)Nc1ccc(-c2cnc3c(NCCCCO)nc4cc(C)c(C)cc4n23)cc1` [Example 2-165, 1-(4-{4-[(4-hydroxybutyl)amino]-7,8-dimethylimidazo[1,2-a]quinoxalin-1-yl}phenyl)-3-methylurea], the IC50 is 265 nM.

As to `CNC(=O)Nc1ccc(-c2cnc3c(NCc4ccccc4)nc4cc(C)c(C)cc4n23)cc1` [Example 2-166, 1-{4-[4-(benzylamino)-7,8-dimethylimidazo[1,2-a]quinoxalin-1-yl]phenyl}-3-methylurea], the IC50 came out at 609 nM.

With `CNC(=O)Nc1ccc(-c2cnc3c(NCc4cccs4)nc4cc(C)c(C)cc4n23)cc1` [Example 2-167, 1-(4-{7,8-dimethyl-4-[(thiophen-2-ylmethyl)amino]imidazo[1,2-a]quinoxalin-1-yl}phenyl)-3-methylurea], the IC50 is 469 nM.

Regarding `CCNc1nc2cc(C)c(C)cc2n2c(-c3ccc(NC(=O)NC)cc3)cnc12` [Example 2-168, 1-{4-[4-(ethylamino)-7,8-dimethylimidazo[1,2-a]quinoxalin-1-yl]phenyl}-3-methylurea], the IC50 turned out to be 134 nM.

With `CNC(=O)Nc1ccc(-c2cnc3c(NCCCn4ccnc4)nc4cc(C)c(C)cc4n23)cc1` [Example 2-169, 1-[4-(4-{[3-(1H-imidazol-1-yl)propyl]amino}-7,8-dimethylimidazo[1,2-a]quinoxalin-1-yl)phenyl]-3-methylurea], the IC50 is 274 nM.

In the case of `CNC(=O)Nc1ccc(-c2cnc3c(NCC4CC4)nc4cc(C)c(C)cc4n23)cc1` [Example 2-170, 1-(4-{4-[(cyclopropylmethyl)amino]-7,8-dimethylimidazo[1,2-a]quinoxalin-1-yl}phenyl)-3-methylurea], the IC50 turned out to be 312 nM.

As for `CNC(=O)Nc1ccc(-c2cnc3c(NCc4cccnc4)nc4cc(C)c(C)cc4n23)cc1` [Example 2-171, 1-(4-{7,8-dimethyl-4-[(pyridin-3-ylmethyl)amino]imidazo[1,2-a]quinoxalin-1-yl}phenyl)-3-methylurea], the IC50 worked out at 283 nM.

Take `CNC(=O)Nc1ccc(-c2cnc3c(NCc4ccncc4)nc4cc(C)c(C)cc4n23)cc1` [Example 2-172, 1-(4-{7,8-dimethyl-4-[(pyridin-4-ylmethyl)amino]imidazo[1,2-a]quinoxalin-1-yl}phenyl)-3-methylurea]: the IC50 turned out to be 260 nM.

On to `CNC(=O)Nc1ccc(-c2cnc3c(NCC(C)C)nc4cc(C)c(C)cc4n23)cc1` [Example 2-173, 1-(4-{7,8-dimethyl-4-[(2-methylpropyl)amino]imidazo[1,2-a]quinoxalin-1-yl}phenyl)-3-methylurea], for which the concentration for half-maximal inhibition (IC50) was found to be 209 nM.

Turning to `CNC(=O)Nc1ccc(-c2cnc3c(NCCC(N)=O)nc4cc(C)c(C)cc4n23)cc1` [Example 2-174, N^3-(7,8-dimethyl-1-{4-[(methylcarbamoyl)amino]phenyl}imidazo[1,2-a]quinoxalin-4-yl)-beta-alaninamide], the IC50 amounted to 782 nM.

On to `CNC(=O)Nc1ccc(-c2cnc3c(NCc4ccnn4C)nc4cc(C)c(C)cc4n23)cc1` [Example 2-175, 1-[4-(7,8-dimethyl-4-{[(1-methyl-1H-pyrazol-5-yl)methyl]amino}imidazo[1,2-a]quinoxalin-1-yl)phenyl]-3-methylurea], for which the IC50 was found to be 199 nM.

For `CNC(=O)Nc1ccc(-c2cnc3c(NCc4cnn(C)c4)nc4cc(C)c(C)cc4n23)cc1` [Example 2-176, 1-[4-(7,8-dimethyl-4-{[(1-methyl-1H-pyrazol-4-yl)methyl]amino}imidazo[1,2-a]quinoxalin-1-yl)phenyl]-3-methylurea], the IC50 came to 616 nM.

Take `CNC(=O)Nc1ccc(-c2cnc3c(NCCS(N)(=O)=O)nc4cc(C)c(C)cc4n23)cc1` [Example 2-177, 2-[(7,8-dimethyl-1-{4-[(methylcarbamoyl)amino]phenyl}imidazo[1,2-a]quinoxalin-4-yl)amino]ethanesulfonamide]: the IC50 came out at 2240 nM.

Take `CCCNc1nc2cc(C)c(C)cc2n2c(-c3ccc(C(=O)NC4CC4)c(Cl)c3)cnc12` [Example 2-178, 2-chloro-N-cyclopropyl-4-[7,8-dimethyl-4-(propylamino)imidazo[1,2-a]quinoxalin-1-yl]benzamide]: the IC50 is 24.8 nM.

As for `Cc1cc2nc(NCCO)c3ncc(-c4ccc(C(=O)NC5CC5)c(Cl)c4)n3c2cc1C` [Example 2-179, 2-chloro-N-cyclopropyl-4-{4-[(2-hydroxyethyl)amino]-7,8-dimethylimidazo[1,2-a]quinoxalin-1-yl}benzamide], the IC50 worked out at 130 nM.

Consider `Cc1cc2nc(NCCCN3CCOCC3)c3ncc(-c4ccc(C(=O)NC5CC5)c(Cl)c4)n3c2cc1C` [Example 2-180, 2-chloro-N-cyclopropyl-4-(7,8-dimethyl-4-{[3-(morpholin-4-yl)propyl]amino}imidazo[1,2-a]quinoxalin-1-yl)benzamide], for which the IC50 came to 473 nM.

`Cc1cc2nc(NCCC(C)C)c3ncc(-c4ccc(C(=O)NC5CC5)c(Cl)c4)n3c2cc1C` [Example 2-181, 2-chloro-N-cyclopropyl-4-{7,8-dimethyl-4-[(3-methylbutyl)amino]imidazo[1,2-a]quinoxalin-1-yl}benzamide]: the IC50 was found to be 71.8 nM.

Regarding `Cc1cc2nc(NCCCN3CCCC3=O)c3ncc(-c4ccc(C(=O)NC5CC5)c(Cl)c4)n3c2cc1C` [Example 2-182, 2-chloro-N-cyclopropyl-4-(7,8-dimethyl-4-{[3-(2-oxopyrrolidin-1-yl)propyl]amino}imidazo[1,2-a]quinoxalin-1-yl)benzamide], the IC50 was 444 nM.

For the molecule `COCCNc1nc2cc(C)c(C)cc2n2c(-c3ccc(C(=O)NC4CC4)c(Cl)c3)cnc12` [Example 2-183, 2-chloro-N-cyclopropyl-4-{4-[(2-methoxyethyl)amino]-7,8-dimethylimidazo[1,2-a]quinoxalin-1-yl}benzamide], the IC50 amounted to 113 nM.

Regarding `Cc1cc2nc(NCCCCO)c3ncc(-c4ccc(C(=O)NC5CC5)c(Cl)c4)n3c2cc1C` [Example 2-184, 2-chloro-N-cyclopropyl-4-{4-[(4-hydroxybutyl)amino]-7,8-dimethylimidazo[1,2-a]quinoxalin-1-yl}benzamide], the IC50 stood at 33 nM.

On to `CCNc1nc2cc(C)c(C)cc2n2c(-c3ccc(C(=O)NC4CC4)c(Cl)c3)cnc12` [Example 2-185, 2-chloro-N-cyclopropyl-4-[4-(ethylamino)-7,8-dimethylimidazo[1,2-a]quinoxalin-1-yl]benzamide], for which the IC50 was 97.3 nM.

As to `Cc1cc2nc(NCCCO)c3ncc(-c4ccc(C(=O)NC5CC5)c(Cl)c4)n3c2cc1C` [Example 2-186, 2-chloro-N-cyclopropyl-4-{4-[(3-hydroxypropyl)amino]-7,8-dimethylimidazo[1,2-a]quinoxalin-1-yl}benzamide], the IC50 is 117 nM.

In the case of `CCCCNc1nc2cc(C)c(C)cc2n2c(-c3ccc(C(=O)NC4CC4)c(Cl)c3)cnc12` [Example 2-187, 4-[4-(butylamino)-7,8-dimethylimidazo[1,2-a]quinoxalin-1-yl]-2-chloro-N-cyclopropylbenzamide], the IC50 is 26.7 nM.

On to `CC(=O)NCCNc1nc2cc(C)c(C)cc2n2c(-c3ccc(C(=O)NC4CC4)c(Cl)c3)cnc12` [Example 2-188, 4-(4-{[2-(acetylamino)ethyl]amino}-7,8-dimethylimidazo[1,2-a]quinoxalin-1-yl)-2-chloro-N-cyclopropylbenzamide], for which the IC50 came to 541 nM.
